Literature values in US20100291629A1, “USE OF DELEUCOCYTATION FILTERS FOR DEFENSIN PURIFICATION” (ETABLISSEMENT FRANCAIS DU SANG, priority 2006, published 2010).

How the values were obtained:
neutrophils [1] = conditions: PMA 1 μg/ml
neutrophils [2] = tested on: neutrophils
isolated neutrophils = conditions: Ionomycin 1 μM; 30.10^6 isolated neutrophils

Compound: CCCCCCCCCCCCCC(=O)O[C@@H]1[C@@H](C)[C@@]2(O)[C@@H](C=C(CO)C[C@]3(O)C(=O)C(C)=C[C@@H]23)[C@@H]2C(C)(C)[C@]12OC(C)=O [PMA, phorbol myristate acetate]
- defensins released (neutrophils [1]): 8%

Compound: CSCC[C@H](NC=O)C(=O)N[C@@H](CC(C)C)C(=O)N[C@@H](Cc1ccccc1)C(=O)O [fMLP, N-formylmethionyl-leucyl-phenylalanine]
- defensin release, % of the content (neutrophils [2]; fMLP 10^−7 M): 17%

Compound: C[C@H](CCC(=O)O)C[C@H](C)C[C@H](C)C(=O)/C=C(\O)[C@H](C)C[C@H](C)C/C=C/[C@@H](C)[C@@H](O)[C@@H](C)[C@@H](O)C[C@@H]1CC[C@@](C)([C@H]2CC[C@@](C)([C@@H](C)O)O2)O1 [ionomycin, Ionomycin]
- α-defensin exocytosis rate (isolated neutrophils): approximately 20%

Compound: IL8: Interleukine 8, used to treat neutrophils in vitro
- defensin release, % of the defensin content in neutrophil granules (neutrophils [2]; IL8 50 ng/ml, 2.10^6 neutrophils): 10%
